Legend:
[1] = test system: P. stuartii; conditions: cited from earlier work; for resistance rates being reported: P. stuartii, first- and second-generation cephalosporins susceptible to its β-lactamases
[2] = test system: P. stuartii PR500; assay: Level of aminoglycoside resistance of strain PR500; format: cell-based, Providencia stuartii; conditions: PR500 (PR50 containing pR401 and pACYC184.aarG)
Protocol: Therefore, strain PR500, which is a derivative of the wild-type P. stuartii PR50 [Rather, P. et al., J. Bacteriol. 175:6492-6498 (1993)], was used. PR500 was generated by introducing into PR50 both pR401 (aac(2′)-lacZ) and pACYC184.aarG, a compatible pACYC184 derivative containing the aarG gene. PR500 forms white colonies on plates containing X-gal and has levels of aminoglycoside resistance to 4 μg/ml of gentamicin. Selection of mutants was achieved by plating approximately 10^8 cells of PR500 on LB plates containing 15 μg/ml of gentamicin and X-gal (to select and identify regulatory mutants), ampicillin (150 μg/ml) to maintain pR401 and chloramphenicol (100 μg/ml) to maintain pACYC184.aarG. As observed previously, colonies arose at a frequency of […] [Rather, P. et al., J. Bacteriol. 175:6492-6498 (1993)]. […] While not limiting the present invention to any particular mechanism, these colonies presumably resulted from mutations in a trans-acting regulator of aac(2′)-la since expression of both the chromosomal copy of aac(2′)-la and the plasmid encoded aac(2′)-lacZ fusion were increased. One class of mutants which formed small blue colonies was identified and a representative isolate, PR60, was characterized. Introduction by electroporation (Gene Pulser, Biorad) of the previously cloned aarA, aarB, and aarD genes [Macinga, D. R. et al., Mol. Microbiol. […]

Molecule	resistance rates being reported [1]	levels of aminoglycoside resistance [2]	proportions of P. stuartii resistant ([1]; both in wards where the drug is widely used and in others (e.g., geriatric wards) where it was not used)
Cc1nnc(SCC2=C(C(=O)O)N3C(=O)[C@@H](NC(=O)Cn4cnnn4)[C@H]3SC2)s1 [cefazolin]	94%	–	–
CC1=C(C(=O)O)N2C(=O)[C@@H](NC(=O)[C@H](N)c3ccccc3)[C@H]2SC1 [cephalexin]	100%	–	–
O=C(Cc1cccs1)N[C@@H]1C(=O)N2C(C(=O)[O-])=C(C[n+]3ccccc3)CS[C@H]12 [cephaloridine]	82%	–	–
CC(=O)OCC1=C(C(=O)O)N2C(=O)[C@@H](NC(=O)Cc3cccs3)[C@H]2SC1 [cephalothin]	97%	–	–
gentamicin	–	4 µg/mL	80-100%

Source: patent US6383745B1, “Methods of screening for anti-microbial utilizing aarC and compositions thereof” (priority 1997, dated 2002)
